Reference: paper PMC12249711, “Comprehensive Evaluation of 1H-Isoindole-1,3(2H)-Dione Derivatives: Pharmacokinetic Studies and Analgesic Potential in Various Pain Models” (International Journal of Molecular Sciences, 2025)

Columns and labels:
[1] = tested on: mice; test: Glutamate-induced pain test; assay type: in vivo, Albino Swiss mice; settings: vs vehicle
Protocol: Prior to the experimental procedure, individual mice were acclimatized in an observation chamber (n = 128). Thirty minutes before the test, the compounds under investigation were administered intraperitoneally (i.p.). A volume of 20 μL of a glutamate solution, containing 30 μmol per mouse paw, was subcutaneously injected into the ventral surface of the right hind paw to induce a pain response. Glutamate-induced nociception was assessed 15 min post-injection. The duration of time spent licking the injected paw was recorded using a chronometer and was interpreted as an indicator of nociception.

[2] = tested on: rats; test: Carrageenan-induced mechanical hyperalgesia (pain pressure threshold, Randall-Selitto); assay type: in vivo, Wistar rats; settings: for Pain Threshold: mean ± SEM, rats; for Increase in pain threshold: vs control
Protocol: The acute and local inflammation and paw edema was induced by intraplantar (i.pl.) injection of 0.1 mL of 1% carrageenan solution in PBS into the rat’s right hind paw, according to the modified method of Winter and Lence, as described previously; (n = 84). The paw volume was measured using the dislocation of the water column of the plethysmometer (Type a, 7140; Plethysmometer, Ugo Basile, Gemonio, Italy) before (V0) and at 1, 2, and 3 h (V1, V2, V3) after i.pl. carrageenan injection. […] Vehicle (1% Tween 80) was administered by the same route as the tested compounds.
Furthermore, we performed the pain pressure threshold test to assess heightened sensitivity to mechanical stimuli. The experiment was conducted based on the method described by Randall and Selitto [58], with certain modifications. An analgesymeter (AnalgesyMeter 37215, Ugo Basile, Gemonio, Italy) was used to gradually apply increasing pressure (measured in grams) to the plantar surface of the right hind paw of the rat until paw withdrawal occurred. At this point, the intensity of the applied force (in grams) was recorded as the withdrawal threshold. The maximum force intensity was set at 250 g. Carrageenan induces a decrease in the nociceptive threshold in response to a mechanical stimulus, a condition referred to as hyperalgesia. For each rat, paw withdrawal thresholds were recorded both before (0 h) and 1, 2, and 3 h after carrageenan administration (i.e., 3.5 h after intraperitoneal pretreatment with the tested compounds). […] The analgesic effect of the tested compounds was assessed in comparison with the control group (1% Tween 80); the injection was performed intraperitoneally within 30 min of carrageenan administration. An analgesic effect occurs when the compound administered produces a pain response with greater pressure than the control group.

[3] = tested on: mice; test: Formalin test; assay type: in vivo, Albino Swiss mice; settings: vs vehicle; for Reduction of pain reaction (licking duration), neurogenic phase: phase I (0–5 min); for Reduction of pain response, inflammatory phase: phase II (15–30 min)
Protocol: The pain reaction was induced by intraplantar (i.pl.) injection of 20 μL of 2.5% formalin solution into the right hind paw of the mouse (n = 136). […] Time (in seconds) spent on licking or biting the injected hind paw in selected intervals, 0–5 min (neurogenic phase) and 15–30 min (inflammatory phase), was measured in each group and was an indicator of nociceptive behavior. The procedure was based on the method described by with some modifications by.

[4] = tested on: mice; test: Capsaicin-induced neurogenic pain test; assay type: in vivo, Albino Swiss mice; settings: vs vehicle
Protocol: The examined compounds were administered 30 min before the test (n = 112). The pain reaction was induced by injecting 20 μL of a capsaicin solution prepared in saline (1.6 μg capsaicin per mouse paw) into the dorsal surface of the right hind paw for further details. The animals were immediately placed individually into glass beakers and the amount of time spent licking the injected paw was recorded for 5 min with a chronometer.

[5] = 10 mg/kg i.p., 0 h (before carrageenan)
[6] = 10 mg/kg i.p., 1 h after carrageenan
[7] = 10 mg/kg i.p., 2 h after carrageenan
[8] = 10 mg/kg i.p., 3 h after carrageenan
[9] = 20 mg/kg i.p., 0 h (before carrageenan)
[10] = 20 mg/kg i.p., 1 h after carrageenan
[11] = 20 mg/kg i.p., 2 h after carrageenan
[12] = 20 mg/kg i.p., 3 h after carrageenan

O=C1c2ccccc2C(=O)N1CC(O)CN1CCN(c2ccccc2)CC1 (centres unmarked) [Compound F1]
Reduction of glutamate-induced pain reaction ([1]; 5 mg/kg i.p.): 41.3% | Reduction of glutamate-induced pain reaction ([1]; 10 mg/kg i.p.): 82.3% | Reduction of glutamate-induced pain reaction ([1]; 20 mg/kg i.p.): 87.2% | Pain Threshold [2, 5]: 128.3 ± 1.1 g | Pain Threshold [2, 6]: 138.3 ± 2.1 g | Pain Threshold [2, 7]: 142.5 ± 2.1 g | Pain Threshold [2, 8]: 134.2 ± 2.1 g | Increase in pain threshold ([2]; 10 mg/kg, 1 h): 16% | Increase in pain threshold ([2]; 10 mg/kg, 2 h): 19.5% | Increase in pain threshold ([2]; 10 mg/kg, 3 h): 14.2% | Pain Threshold [2, 9]: 130.0 ± 2.9 g | Pain Threshold [2, 10]: 143.3 ± 2.5 g | Pain Threshold [2, 11]: 148.3 ± 2.8 g | Pain Threshold [2, 12]: 146.7 ± 1.1 g | Increase in pain threshold ([2]; 20 mg/kg, 1 h): 20.2% | Increase in pain threshold ([2]; 20 mg/kg, 2 h): 24.4% | Increase in pain threshold ([2]; 20 mg/kg, 3 h): 25% | Reduction of pain reaction (licking duration), neurogenic phase ([3]; 5 mg/kg i.p.): did not attenuate the nociceptive response | Reduction of pain reaction (licking duration), neurogenic phase ([3]; 10 mg/kg i.p.): 44.9% | Reduction of pain reaction (licking duration), neurogenic phase ([3]; 20 mg/kg i.p.): 62.7% | Reduction of pain response, inflammatory phase ([3]; 5 mg/kg i.p.): 37% | Reduction of pain response, inflammatory phase ([3]; 10 mg/kg i.p.): 66% | Reduction of pain response, inflammatory phase ([3]; 20 mg/kg i.p.): 90% | Reduction of capsaicin-induced neurogenic pain ([4]; 5 mg/kg i.p.): 31.7% | Reduction of capsaicin-induced neurogenic pain ([4]; 10 mg/kg i.p.): 40.8% | Reduction of capsaicin-induced neurogenic pain ([4]; 20 mg/kg i.p.): 69.0%

COc1ccccc1N1CCN(CC(O)CN2C(=O)c3ccccc3C2=O)CC1 (centres unmarked) [Compound F2]
Reduction of glutamate-induced pain reaction ([1]; 5 mg/kg i.p.): 54.3% | Reduction of glutamate-induced pain reaction ([1]; 10 mg/kg i.p.): 62.9% | Reduction of glutamate-induced pain reaction ([1]; 20 mg/kg i.p.): 68.7% | Pain Threshold [2, 5]: 132.5 ± 2.1 g | Pain Threshold [2, 7]: 127.5 ± 1.5 ns g | Pain Threshold [2, 8]: 130 ± 2.6 ns g | Effect on pain threshold (in words) ([2]; 10 mg/kg, over 1–3 h): lack of analgesic activity | Pain Threshold [2, 9]: 132.5 ± 2.8 g | Pain Threshold [2, 10]: 147.5 ± 2.5 g | Pain Threshold [2, 11]: 141.7 ± 1.7 g | Pain Threshold [2, 12]: 139.2 ± 0.8 g | Increase in pain threshold ([2]; 20 mg/kg, 1 h): 10% | Increase in pain threshold ([2]; 20 mg/kg, 2 h): 14% | Increase in pain threshold ([2]; 20 mg/kg, 3 h): 11.3% | Reduction of pain reaction (licking duration), neurogenic phase ([3]; 5 mg/kg i.p.): did not attenuate the nociceptive response | Reduction of pain reaction (licking duration), neurogenic phase ([3]; 10 mg/kg i.p.): 44.6% | Reduction of pain reaction (licking duration), neurogenic phase ([3]; 20 mg/kg i.p.): 53% | Reduction of pain response, inflammatory phase ([3]; 5 mg/kg i.p.): 51% | Reduction of pain response, inflammatory phase ([3]; 10 mg/kg i.p.): 73% | Reduction of pain response, inflammatory phase ([3]; 20 mg/kg i.p.): 87% | Reduction of capsaicin-induced neurogenic pain ([4]; 5 mg/kg i.p.): 31% | Reduction of capsaicin-induced neurogenic pain ([4]; 10 mg/kg i.p.): 56% | Reduction of capsaicin-induced neurogenic pain ([4]; 20 mg/kg i.p.): 74.7%

O=C1c2ccccc2C(=O)N1CC(O)CN1CCN(c2cccc(C(F)(F)F)c2)CC1 (centres unmarked) [Compound F3]
Reduction of glutamate-induced pain reaction ([1]; 10 mg/kg i.p.): 61% | Reduction of glutamate-induced pain reaction ([1]; 20 mg/kg i.p.): 70% | Pain Threshold [2, 5]: 134.2 ± 2.4 g | Pain Threshold [2, 6]: 141.7 ± 1.7 g | Pain Threshold [2, 7]: 142.5 ± 2.1 g | Pain Threshold [2, 8]: 137.5 ± 1.7 g | Increase in pain threshold ([2]; 10 mg/kg, 1 h): 7% | Increase in pain threshold ([2]; 10 mg/kg, 2 h): 12.5% | Increase in pain threshold ([2]; 10 mg/kg, 3 h): 10% | Pain Threshold [2, 9]: 135.8 ± 1.5 g | Pain Threshold [2, 10]: 148.3 ± 3.3 g | Pain Threshold [2, 11]: 150.8 ± 3.9 g | Pain Threshold [2, 12]: 148.3 ± 3.1 g | Increase in pain threshold ([2]; 20 mg/kg, 1 h): 11.9% | Increase in pain threshold ([2]; 20 mg/kg, 2 h): 19% | Increase in pain threshold ([2]; 20 mg/kg, 3 h): 18.6% | Reduction of pain reaction (licking duration), neurogenic phase ([3]; 5 mg/kg i.p.): did not attenuate the nociceptive response | Reduction of pain reaction (licking duration), neurogenic phase ([3]; 10 mg/kg i.p.): did not attenuate the nociceptive response | Reduction of pain reaction (licking duration), neurogenic phase ([3]; 20 mg/kg i.p.): 41.6% | Reduction of pain response, inflammatory phase ([3]; 5 mg/kg i.p.): 34.5% | Reduction of pain response, inflammatory phase ([3]; 10 mg/kg i.p.): 57.5% | Reduction of pain response, inflammatory phase ([3]; 20 mg/kg i.p.): 80.9% | Reduction of capsaicin-induced neurogenic pain ([4]; 20 mg/kg i.p.): 48.46%

O=C1c2ccccc2C(=O)N1CC(O)CN1CCN(C(c2ccccc2)c2ccccc2)CC1 (centres unmarked) [Compound F4]
Reduction of glutamate-induced pain reaction ([1]; 20 mg/kg i.p.): 53.7% | Pain Threshold [2, 5]: 131.7 ± 1.7 g | Pain Threshold [2, 6]: 139.2 ± 2.0 g | Pain Threshold [2, 7]: 141.7 ± 1.7 g | Pain Threshold [2, 8]: 139.2 ± 1.2 g | Increase in pain threshold ([2]; 10 mg/kg, 1 h): 10.5% | Increase in pain threshold ([2]; 10 mg/kg, 2 h): 13.4% | Increase in pain threshold ([2]; 10 mg/kg, 3 h): 12.9% | Pain Threshold [2, 9]: 134.2 ± 1.5 g | Pain Threshold [2, 10]: 144.2 ± 0.8 g | Pain Threshold [2, 11]: 145 ± 1.5 g | Pain Threshold [2, 12]: 140.8 ± 0.8 g | Increase in pain threshold ([2]; 20 mg/kg, 1 h): 14.4% | Increase in pain threshold ([2]; 20 mg/kg, 2 h): 16% | Increase in pain threshold ([2]; 20 mg/kg, 3 h): 14.2% | Reduction of pain reaction (licking duration), neurogenic phase ([3]; 5 mg/kg i.p.): did not attenuate the nociceptive response | Reduction of pain reaction (licking duration), neurogenic phase ([3]; 10 mg/kg i.p.): did not attenuate the nociceptive response | Reduction of pain reaction (licking duration), neurogenic phase ([3]; 20 mg/kg i.p.): 48.3% | Reduction of pain response, inflammatory phase ([3]; 10 mg/kg i.p.): 29.5% | Reduction of pain response, inflammatory phase ([3]; 20 mg/kg i.p.): 42% | Reduction of capsaicin-induced neurogenic pain ([4]; 5 mg/kg i.p.): 42% | Reduction of capsaicin-induced neurogenic pain ([4]; 10 mg/kg i.p.): 33.6% | Reduction of capsaicin-induced neurogenic pain ([4]; 20 mg/kg i.p.): 57.25%
